Data as given in patent US20170051112A1, “RESIN COMPOSITION SUITABLE FOR PRINTING AND PRINTING METHOD UTILIZING THE SAME” (MONTANUNIVERSITÄT LEOBEN, priority 2014, published 2017).

Legend:
[1] = Maximum reaction speed by Photo Differential Scanning Calorimetry (Photo-DSC); conditions: yne monomer with TMPMP and 5 wt.-% photoinitiator mixture (comparatives without thiol); 1 W/cm^2, 50° C., nitrogen
Experimental: The maximum reaction speed of various monomers was evaluated by means of Photo Differential Scanning Calorimetry (Photo-DSC). 8 mg of the respective test mixtures consisting of yne monomer (as shown in the following table 1) and thiol monomer (trimethylpropane tri(3-mercaptopropionate), TMPMP) as well as 5 wt.-% of a photoinitiator mixture (2-hydroxy-2-methyl-1-phenyl propanone/diphenyl 2,4,6-trimethylbenzoyl phosphane oxide, 50 wt.-%/50 wt.-%) were provided. As comparative test mixtures, acrylate and methacrylate without thiol monomer, but together with 5 wt.-% of the same photoinitiator mixture were provided. The test mixtures were placed in a crucible of aluminium and irradiated with an Omnicure® lamp at an intensity of 1 W/cm^2 at 50° C. under a nitrogen gas atmosphere to thereby cure the test mixtures.
The times (tmax) for reaching the maximum reaction enthalpy indicate the reactivity of the photo-reactive systems. FIG. 1 is a graphical illustration of the test results (tmax) further showing the chemical structural formulas of the tested alkyne monomers and comparative (meth)acryl monomers.

[2] = system: L929 mice fibroblast cells; test: Cytotoxicity (residual protein content of the cells); format: cell-based; conditions: for Cytotoxicity, in words: L929 cells; for EC50: concentration at which 50% of the L929 cells are damaged; for EC50 / Concentration limit: incubation 48 h; for Concentration limit: toxicological concentration limit: reduction of protein content of L929 cells by more than 30% relative to negative control
Experimental: The cytotoxicity of various monomers was determined by a certified laboratory by means of L929 mice fibroblast cells. As a (toxic) positive control, Triton X 100 was added to L929 cells with a final concentration of 1% (v/v). As a (non-toxic) negative control, a cell culture medium was used.
After completion of the incubation, the residual protein content of the cells was determined. A reduction of the protein content from L929 cells by more than 30%, relative to the negative control, was evaluated as cytotoxic (which corresponds to the toxicological concentration limit). From this, the half maximal effective concentration (EC50), at which 50% of the cells are damaged, can be calculated.

[3] = Measurement of viscosity (cone-and-plate viscosimeter); format: physicochemical; conditions: for Viscosity, in words: 25° C.; for Viscosity at 25° C.: constant shear rate 300 s^-1, 25° C.
Experimental: For measuring the viscosity, an MC 200 cone-and-plate viscosimeter from Anton Paar GmbH (cone unit MK 22/50 mm, 10) was used. First, the shear rate was varied with a stepped slope and subsequently the viscosity was determined at a constant shear rate (300 s^−1) every 30 seconds. The measurement was carried out at 25° C.

Molecule	tmax (time for reaching the maximum reaction enthalpy) [1] [s]	Cytotoxicity, in words [2]	EC50 ([2]; Mus musculus) [µM]	Concentration limit [2] [µM]	Viscosity, in words [3]	Viscosity at 25° C. [3] [mPa*s]	EC50 [2] [µM]
CCC#COCCCCOC#CCC [1,4-butanediol dibut-1-ynyl ether]	2.22	excellently low cytotoxicity	2000	>1100	relatively low values	6.1	–
CCC#COCCOC(COCC)OC#CCC (centres unmarked) [1,4-triethyleneglycol dibut-1-ynyl ether]	2.46	–	–	–	–	17.2	–
C=CC(=O)OCCCCOC(=O)C=C [1,4-butanediol diacrylate, reference compound]	1.80	particularly cytotoxic	–	<160	–	4.3	–
C#CCOCCCCOCC#C [1,4-butanediol dipropargyl ether]	5.12	excellently low cytotoxicity	3000	>1600	relatively low values	4.7	–
C=C(C)C(=O)OCCCCOC(=O)C(=C)C [1,4-butanediol dimethacrylate, reference compound]	6.72	particularly cytotoxic	–	<160	–	4.6	–
1,4-butanediol dibut-1-ynyl carbonate	2.46	–	–	–	–	–	–
1,4-butanediol dipropargyl carbonate	3.00	–	–	–	–	–	550
C#CCOC(=O)OCC(CC)(COC(=O)OCC#C)COC(=O)OCC#C [Trimethylolpropane tripropargyl carbonate]	1.92	–	–	–	–	–	–
